Source: paper PMC10999543, “Identification of kinase modulators as host-directed therapeutics against intracellular methicillin-resistant Staphylococcus aureus” (Frontiers in Cellular and Infection Microbiology, 2024)
Like-named read-outs stand apart in the source and are kept apart here.

Experiments:
intracellular MRSA = type: cell-based, Staphylococcus aureus; settings: for %GFP+ rep 1 / %GFP+ rep 2 / %GFP+ rep 3 / z-scoreMRSA+ mean / z-scoreMRSA+ rep 1 / z-scoreMRSA+ rep 2 / z-scoreMRSA+ rep 3: MRSA-infected HeLa cells; for %GFP+ rep 1 / z-scoreMRSA+ rep 1: replicate 1; for %GFP+ rep 2 / z-scoreMRSA+ rep 2: replicate 2; for %GFP+ rep 3 / z-scoreMRSA+ rep 3: replicate 3; for z-scoreMRSA+ mean: mean of 3 replicates
How it was run: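 Values are z-scores: GFP-positive HeLa percentage and event count per well against plate statistics, minus the mean DMSO z-score. Wells deviating two-fold from controls were left out of plate means. Infection was at a mean MOI of 6.8, with an overnight compound exposure.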

HeLa cells = assay: Compound screen by flow cytometry: HeLa cell count as surrogate readout of cell viability (z-scoreHeLa); type: cell-based, human; settings: for cell count rep 1 / cell count rep 2 / cell count rep 3 / z-scoreHeLa mean / z-scoreHeLa rep 1 / z-scoreHeLa rep 2 / z-scoreHeLa rep 3: HeLa cell count; for cell count rep 1 / z-scoreHeLa rep 1: replicate 1; for cell count rep 2 / z-scoreHeLa rep 2: replicate 2; for cell count rep 3 / z-scoreHeLa rep 3: replicate 3; for z-scoreHeLa mean: mean of 3 replicates; as to all read-outs here: test concentration or dose not given here
How it was run: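 The viability surrogate was the count of fixed HeLa cells by flow cytometry, converted to z-scores against DMSO controls with values deviating two-fold excluded. Before counting, cells had been infected with MRSA for 1 h and cleared of extracellular bacteria with gentamicin. They were then exposed overnight to kinase inhibitors in triplicate.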

[1] = Yes/No: effect without cell death
For %GFP+ rep 1 in this document: test concentration or dose not given here.
For %GFP+ rep 2 in this document: test concentration or dose not given here.
For %GFP+ rep 3 in this document: test concentration or dose not given here.
For effect in this document: test concentration or dose not given here.
For z-scoreMRSA+ mean in this document: test concentration or dose not given here.
For z-scoreMRSA+ rep 1 in this document: test concentration or dose not given here.
For z-scoreMRSA+ rep 2 in this document: test concentration or dose not given here.
For z-scoreMRSA+ rep 3 in this document: test concentration or dose not given here.

SMILES: CN1CCN(Cc2ccc(NC(=O)Nc3ccc(N(C)c4ccnc(Nc5ccc(CS(C)(=O)=O)cc5)n4)cc3)cc2)CC1 [GW827654A]
- %GFP+ rep 1 (intracellular MRSA; PKIS compound screen raw data): 24.8%
- %GFP+ rep 2 (intracellular MRSA; PKIS compound screen raw data): 24.9%
- %GFP+ rep 3 (intracellular MRSA; PKIS compound screen raw data): 25.0%
- effect (intracellular MRSA; Yes/No call from z-scoreMRSA+): No
- hit (intracellular MRSA; [1]): No
- z-scoreMRSA+ mean (intracellular MRSA; compound screen): 1.38
- z-scoreMRSA+ rep 1 (intracellular MRSA; compound screen): 1.61
- z-scoreMRSA+ rep 2 (intracellular MRSA; compound screen): 1.50
- z-scoreMRSA+ rep 3 (intracellular MRSA; compound screen): 1.03
- cell count rep 1 (HeLa cells; PKIS compound screen raw data): 30631
- cell count rep 2 (HeLa cells; PKIS compound screen raw data): 31592
- cell count rep 3 (HeLa cells; PKIS compound screen raw data): 23281
- cell death (HeLa cells; Yes/No call from z-scoreHeLa): No
- z-scoreHeLa mean (HeLa cells; compound screen): 0.67
- z-scoreHeLa rep 1 (HeLa cells; compound screen): 0.07
- z-scoreHeLa rep 2 (HeLa cells; compound screen): 1.08
- z-scoreHeLa rep 3 (HeLa cells; compound screen): 0.85

SMILES: CN(c1ccc(NC(=O)Nc2cccc(Cl)c2)cc1)c1ccnc(N)n1 [GW830707A]
- %GFP+ rep 1 (intracellular MRSA; PKIS compound screen raw data): 21.9%
- %GFP+ rep 2 (intracellular MRSA; PKIS compound screen raw data): 21.1%
- %GFP+ rep 3 (intracellular MRSA; PKIS compound screen raw data): 22.8%
- effect (intracellular MRSA; Yes/No call from z-scoreMRSA+): No
- hit (intracellular MRSA; [1]): No
- z-scoreMRSA+ mean (intracellular MRSA; compound screen): -0.32
- z-scoreMRSA+ rep 1 (intracellular MRSA; compound screen): -0.79
- z-scoreMRSA+ rep 2 (intracellular MRSA; compound screen): -0.37
- z-scoreMRSA+ rep 3 (intracellular MRSA; compound screen): 0.18
- cell count rep 1 (HeLa cells; PKIS compound screen raw data): 2862
- cell count rep 2 (HeLa cells; PKIS compound screen raw data): 2838
- cell count rep 3 (HeLa cells; PKIS compound screen raw data): 4346
- cell death (HeLa cells; Yes/No call from z-scoreHeLa): No
- z-scoreHeLa mean (HeLa cells; compound screen): -0.92
- z-scoreHeLa rep 1 (HeLa cells; compound screen): -1.07
- z-scoreHeLa rep 2 (HeLa cells; compound screen): -1.13
- z-scoreHeLa rep 3 (HeLa cells; compound screen): -0.56

SMILES: Cc1cccc(-c2nc(Nc3ccncc3)c3ccccc3n2)n1 [GW855857X]
- %GFP+ rep 1 (intracellular MRSA; PKIS compound screen raw data): 26.0%
- %GFP+ rep 2 (intracellular MRSA; PKIS compound screen raw data): 24.5%
- %GFP+ rep 3 (intracellular MRSA; PKIS compound screen raw data): 21.6%
- effect (intracellular MRSA; Yes/No call from z-scoreMRSA+): No
- hit (intracellular MRSA; [1]): No
- z-scoreMRSA+ mean (intracellular MRSA; compound screen): 0.15
- z-scoreMRSA+ rep 1 (intracellular MRSA; compound screen): 0.17
- z-scoreMRSA+ rep 2 (intracellular MRSA; compound screen): 0.46
- z-scoreMRSA+ rep 3 (intracellular MRSA; compound screen): -0.18
- cell count rep 1 (HeLa cells; PKIS compound screen raw data): 3133
- cell count rep 2 (HeLa cells; PKIS compound screen raw data): 3003
- cell count rep 3 (HeLa cells; PKIS compound screen raw data): 4517
- cell death (HeLa cells; Yes/No call from z-scoreHeLa): No
- z-scoreHeLa mean (HeLa cells; compound screen): -0.78
- z-scoreHeLa rep 1 (HeLa cells; compound screen): -0.88
- z-scoreHeLa rep 2 (HeLa cells; compound screen): -1.00
- z-scoreHeLa rep 3 (HeLa cells; compound screen): -0.46

SMILES: CC(C)(C)c1ccc2nccc(Nc3cccc(O)c3)c2c1 [GW856795X]
- %GFP+ rep 1 (intracellular MRSA; PKIS compound screen raw data): 14.7%
- %GFP+ rep 2 (intracellular MRSA; PKIS compound screen raw data): 17.0%
- %GFP+ rep 3 (intracellular MRSA; PKIS compound screen raw data): 17.5%
- z-scoreMRSA+ mean (intracellular MRSA; PKIS compound screen): -0.72
- z-scoreMRSA+ rep 1 (intracellular MRSA; PKIS compound screen): -1.00
- z-scoreMRSA+ rep 2 (intracellular MRSA; PKIS compound screen): -0.46
- z-scoreMRSA+ rep 3 (intracellular MRSA; PKIS compound screen): -0.70
- hit (intracellular MRSA; PKIS compound screen, Yes/No call (effect without cell death)): No
- effect (intracellular MRSA; PKIS compound screen, Yes/No call on z-scoreMRSA+): No
- cell count rep 1 (HeLa cells; PKIS compound screen raw data): 35017
- cell count rep 2 (HeLa cells; PKIS compound screen raw data): 26624
- cell count rep 3 (HeLa cells; PKIS compound screen raw data): 35940
- z-scoreHeLa mean (HeLa cells; PKIS compound screen): 0.00181
- z-scoreHeLa rep 1 (HeLa cells; PKIS compound screen): 2.26
- z-scoreHeLa rep 2 (HeLa cells; PKIS compound screen): -1.52
- z-scoreHeLa rep 3 (HeLa cells; PKIS compound screen): -0.73
- cell death (HeLa cells; PKIS compound screen, Yes/No call on z-scoreHeLa): No

SMILES: Nc1ncc(-c2cccc(S(N)(=O)=O)c2)c2scc(-c3ccc(F)c(Cl)c3)c12 [GW856804X]
- %GFP+ rep 1 (intracellular MRSA; PKIS compounds raw data): 11.3%
- %GFP+ rep 2 (intracellular MRSA; PKIS compounds raw data): 12.3%
- %GFP+ rep 3 (intracellular MRSA; PKIS compounds raw data): 12.2%
- effect (intracellular MRSA; Yes/No call from z-scoreMRSA+): No
- hit (intracellular MRSA; [1]): No
- z-scoreMRSA+ mean (intracellular MRSA; compound screen): -0.70
- z-scoreMRSA+ rep 1 (intracellular MRSA; compound screen): -0.60
- z-scoreMRSA+ rep 2 (intracellular MRSA; compound screen): -0.40
- z-scoreMRSA+ rep 3 (intracellular MRSA; compound screen): -1.09
- cell count rep 1 (HeLa cells; PKIS compounds raw data): 4238
- cell count rep 2 (HeLa cells; PKIS compounds raw data): 7246
- cell count rep 3 (HeLa cells; PKIS compounds raw data): 7870
- cell death (HeLa cells; Yes/No call from z-scoreHeLa): No
- z-scoreHeLa mean (HeLa cells; compound screen): 0.73
- z-scoreHeLa rep 1 (HeLa cells; compound screen): -0.49
- z-scoreHeLa rep 2 (HeLa cells; compound screen): 2.25
- z-scoreHeLa rep 3 (HeLa cells; compound screen): 0.43

SMILES: Cc1cccc(-c2nc(Nc3ccc4[nH]ncc4c3)c3ccccc3n2)n1 [GW857175X]
- %GFP+ rep 1 (intracellular MRSA; PKIS compounds raw data): 13.1%
- %GFP+ rep 2 (intracellular MRSA; PKIS compounds raw data): 11.5%
- %GFP+ rep 3 (intracellular MRSA; PKIS compounds raw data): 12.7%
- effect (intracellular MRSA; Yes/No call from z-scoreMRSA+): No
- hit (intracellular MRSA; [1]): No
- z-scoreMRSA+ mean (intracellular MRSA; compound screen): -0.54
- z-scoreMRSA+ rep 1 (intracellular MRSA; compound screen): -0.0227
- z-scoreMRSA+ rep 2 (intracellular MRSA; compound screen): -0.67
- z-scoreMRSA+ rep 3 (intracellular MRSA; compound screen): -0.94
- cell count rep 1 (HeLa cells; PKIS compounds raw data): 2034
- cell count rep 2 (HeLa cells; PKIS compounds raw data): 1268
- cell count rep 3 (HeLa cells; PKIS compounds raw data): 3042
- cell death (HeLa cells; Yes/No call from z-scoreHeLa): No
- z-scoreHeLa mean (HeLa cells; compound screen): -2.21
- z-scoreHeLa rep 1 (HeLa cells; compound screen): -2.48
- z-scoreHeLa rep 2 (HeLa cells; compound screen): -2.27
- z-scoreHeLa rep 3 (HeLa cells; compound screen): -1.88
